“Also recorded” adds a separate entry of the source.
Tests used:
hCatK [1] = molecular target: T1, hCatK (Homo sapiens, UniProt P43235); assay: In vitro inhibition of purified human Cathepsin K (fluorogenic substrate Z-FR-AMC); assay type: biochemical; settings: for selectivity for CatK over structurally related human Cathepsins: in words, from Table 2; for IC50: purified human Cathepsin, 30 min incubation with inhibitor, mean ± SD, triplicate
T1 sequence (P43235 115-329): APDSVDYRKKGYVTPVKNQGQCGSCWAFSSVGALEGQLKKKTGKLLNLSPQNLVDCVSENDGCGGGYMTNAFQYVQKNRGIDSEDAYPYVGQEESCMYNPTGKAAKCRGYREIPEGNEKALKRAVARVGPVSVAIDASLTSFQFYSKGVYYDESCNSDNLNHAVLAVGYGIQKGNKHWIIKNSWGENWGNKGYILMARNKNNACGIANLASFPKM
Method: (§1) Cathepsin (e.g. Cathepsin K/L/V/S/B), in particular purified human Cathepsin, was diluted in freshly prepared reaction buffer consisting of 50 mM MES pH 5.5, 25 mM EDTA and 2.5 mM DTT. 0.05% Tween20 (v/v) may be added to the reaction buffer of the Cathepsin K.
(§2) Activity assays may be conducted in a suitable manner. In the experiments described herein, the assays were typically conducted in Corning 3820 Low Volume 384 Well Assay Plate with a final assay volume of 20 μL. Plates were shaken at 600 rpm for 1 minute and centrifuged at 1000 rpm for 1 minute prior to incubation. Cathepsin activity was quantified using synthetic fluorogenic peptide substrate Z-FR-AMC (Cath K, L, V), Z-RR-AMC (Cath B) or Z-FVR-AMC (Cath S). Fluorescence intensity (λex=350 nm, λem=440 nm) was measured every 2 minutes in arbitrary units (A.U.) on a CLARIOstar (BMG Labtech) microplate reader and values were converted to product formation [AMC]. […] Measurements were performed in triplicate.
(§3) Inhibitors (200 nL, 100× final concentration in DMSO) were diluted in reaction buffer (10 μL). Purified human Cathepsin (5 μL, 4× final concentration) was added and the reaction mixture was incubated for 30 min at room temperature. Fluorogenic substrate (5 μL, 4× final concentration) was added and fluorescence intensity was measured every 2 minutes for 30-90 minutes.
(§4) The potency of the compounds as CatK inhibitors was assessed in an in vitro inhibition assay on purified human CatK (Table 2). Cathepsin was incubated with inhibitor, and the hydrolysis of substrate was initiated by addition of substrate.

hCatL = hCatL (Homo sapiens, UniProt P07711); assay: In vitro inhibition of purified human Cathepsin L (Z-FR-AMC); assay type: biochemical; settings: 30 min incubation with inhibitor, mean ± SD, triplicate
Chain of hCatL (P07711 114-333): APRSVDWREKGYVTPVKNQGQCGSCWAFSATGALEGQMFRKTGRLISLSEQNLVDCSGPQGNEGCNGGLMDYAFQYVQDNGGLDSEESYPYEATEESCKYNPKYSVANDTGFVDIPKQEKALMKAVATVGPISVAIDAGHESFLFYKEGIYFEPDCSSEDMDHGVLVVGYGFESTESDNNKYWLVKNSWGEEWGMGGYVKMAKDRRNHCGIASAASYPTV
Method: as §1
as §2, with “In the experiments described herein, the assays were typically conducted in Corning 3820 Low Volume 384 Well Assay Plate with a final assay volume of 20 μL.” left out
as §3, §4

hCatS = hCatS (Homo sapiens, UniProt P25774); assay: In vitro inhibition of purified human Cathepsin S (Z-FVR-AMC); assay type: biochemical; settings: 30 min incubation with inhibitor, mean ± SD, triplicate
Chain of hCatS (P25774 115-331): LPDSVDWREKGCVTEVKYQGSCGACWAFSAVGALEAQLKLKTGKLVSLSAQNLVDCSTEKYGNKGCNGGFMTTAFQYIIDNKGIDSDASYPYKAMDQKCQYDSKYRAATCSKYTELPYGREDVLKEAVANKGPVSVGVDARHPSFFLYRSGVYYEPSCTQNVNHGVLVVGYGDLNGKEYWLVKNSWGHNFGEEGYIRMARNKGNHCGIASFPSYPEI
Method: as §1, §2, §3, §4

hCatV = hCatV (Homo sapiens, UniProt O60911); assay: In vitro inhibition of purified human Cathepsin V (Z-FR-AMC); assay type: biochemical; settings: 30 min incubation with inhibitor, mean ± SD, triplicate
Chain of hCatV (O60911 114-334): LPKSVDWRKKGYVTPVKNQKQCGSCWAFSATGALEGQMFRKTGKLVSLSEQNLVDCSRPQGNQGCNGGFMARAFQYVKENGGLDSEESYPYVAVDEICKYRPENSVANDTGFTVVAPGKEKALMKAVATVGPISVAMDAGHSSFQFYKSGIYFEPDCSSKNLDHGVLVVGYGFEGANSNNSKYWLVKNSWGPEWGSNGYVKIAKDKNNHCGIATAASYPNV
Method: as §1
as §2, with “In the experiments described herein, the assays were typically conducted in Corning 3820 Low Volume 384 Well Assay Plate with a final assay volume of 20 μL.” left out
as §3, §4

hCatB = hCatB (Homo sapiens, UniProt P07858); assay: In vitro inhibition of purified human Cathepsin B (Z-RR-AMC); assay type: biochemical; settings: 30 min incubation with inhibitor, mean ± SD, triplicate
Method: as §1
as §2, with “In the experiments described herein, the assays were typically conducted in Corning 3820 Low Volume 384 Well Assay Plate with a final assay volume of 20 μL.” left out
as §3, §4

hCatK [2] = molecular target: T1, hCatK; assay: Jump dilution assay for reversibility of hCatK inhibition; assay type: biochemical; settings: 300× dilution into fluorogenic substrate solution
Method: FIG. 3 provides a schematic overview of a jump dilution assay. A) Dose response curve for a 300-fold dilution of inhibitor concentration from full inhibition to full activity. B) Protocol and concentrations for incubation and dilution. C) Progress curves for hCatK proteolytic activity with inhibitor compounds ODN, 4, 5, 6 after dilution.
Reversibility of protease inhibition by an inhibitor may be assessed in a jump dilution assay. An exemplary jump dilution assay is provided in R. A. Copeland, A. Basavapathruni, M. Moyer, M. P. Scott, Anal. Biochem. 2011, 416, 206. In a jump dilution assay the protease (e.g. CatK) is incubated with inhibitor at high concentration to allow full active site occupation, and subsequently diluted, e.g. 300×, into fluorogenic substrate solution resulting in an inhibitor concentration corresponding with full protease activity. The hydrolysis of fluorogenic substrate is monitored over an extended time period, e.g. at least 60 minutes. […] The assay results may be compared with the results using a known irreversible inhibitor of the protease as a control. E-64 represents an established pan-Cathepsin irreversible inhibitor, suitable for use as a positive control with most cysteine protease Cathepsins.
Reversibility of hCatK inhibition was assessed in a jump dilution assay. Established pan-Cathepsin inhibitor E-64 was taken along as a control for irreversible inhibition. Purified hCatK was incubated with inhibitors at high concentration to allow full active site occupation, and subsequently diluted 300× into fluorogenic substrate solution resulting in an inhibitor concentration corresponding with full activity (FIG. 3).

Cathepsin K = molecular target: T2, Cathepsin K (Homo sapiens, UniProt P43235); assay: LC-MS of intact CatK and CatK-inhibitor complexes; assay type: binding; settings: for formation of covalent CatK-inhibitor complex: 6 h incubation, intact protein LC-MS; for Measured mass complex: CatK 3 μM, inhibitor 100 μM, 37° C., 6 h, deconvoluted ESI mass
T2 sequence (P43235 115-329): T1 sequence (P43235 115-329)
Method: The masses were determined from deconvoluted electrospray ionization mass spectra of CatK complexes. FIG. 4A to FIG. 4E each provide the result for a sample. In each of these FIGS. 4A to 4E the first panel provides the UPLC chromatogram, the second panel provides the electrospray ionization mass spectrum, and the third panel provides the corresponding deconvoluted electrospray ionization mass spectrum (average isotopes) with an indication of the measured mass of the predominant species. FIG. 4A provides the results obtained for intact CatK. FIG. 4B provides the results obtained for CatK.
Cathepsin K (3 μM) in reaction buffer ([…]) was incubated with inhibitor (100 μM) at 37° C. for 6 hours prior to analysis. 1 μL injections of the sample were made onto a XEVO-G2XSQTOF#YEA928 UPLC-MS system with a Waters Acquity CM detector. Chromatographic separation was carried out on a ACQUITY UPLC® Protein BEH C4 Column over a 12 minute gradient elution of 2% to 100% acetonitrile in water (0.1% formic acid) at a flow rate of 0.500 mL/min. For the first 4 minutes the flow was diverted to the waste to avoid contamination of the MS with high concentrations of buffer components. After 4 minutes, the elution flow was ionized with an ESI ionization source and measured on a XEVO-G2XSQTOF. The results were analyzed using MassLynx V4.1. The total mass of the complex was obtained by deconvolution of electrospray ionization mass spectrum envelope (average isotopes) with the MaxEnt1 function.
Cathepsin K was incubated with ODN, 4, 5 or 6 for 6 h to allow full covalent bond formation and submitted for measurement without any digestion steps, according to the method for LC-MS for intact CatK and CatK-inhibitor complexes described in the assays section above.

SMILES | selectivity for CatK over structurally related human Cathepsins (hCatK [1]) | IC50 (hCatK [1]) | IC50 (hCatL) | IC50 (hCatS) | IC50 (hCatV) | IC50 (hCatB) | reversibility of hCatK inhibition (hCatK [2]) | formation of covalent CatK-inhibitor complex (Cathepsin K) | Measured mass complex (Cathepsin K)
C#CC(C)NC(=O)[C@H](CC(C)(C)F)N[C@@H](c1ccc(-c2ccc(S(C)(=O)=O)cc2)cc1)C(F)(F)F (mixture of isomers) [Compound 5, (S)—N—((R/S)-but-3-yn-2-yl)-4-fluoro-4-methyl-2-(((S)-2,2,2-trifluoro-1-(4′-(methylsulfonyl)-[1,1′-biphenyl]-4-yl)ethyl)amino)pentanamide] | conserved | 0.346 ± 0.0116 µM | > 100 µM | 15.9 ± 1.84 µM | 45.9 ± 2.33 µM | 39.7 ± 4.34 µM | irreversible | formation of a covalent hCatK—inhibitor complex; also recorded: covalent complex formed | 24231
C#CCNC(=O)[C@H](CC(C)(C)F)N[C@@H](c1ccc(-c2ccc(S(C)(=O)=O)cc2)cc1)C(F)(F)F [Compound 4, (S)-4-fluoro-4-methyl-N-(prop-2-yn-1-yl)-2-(((S)-2,2,2-trifluoro-1-(4′-(methylsulfonyl)-[1,1′-biphenyl]-4-yl)ethyl)amino)pentanamide] | conserved | 0.293 ± 0.00873 µM | > 100 µM | 10.7 ± 0.842 µM | 23.8 ± 1.41 µM | 9.39 ± 0.628 µM | irreversible | formation of a covalent hCatK—inhibitor complex; also recorded: covalent complex formed | 24217
CC(C)(F)C[C@H](N[C@@H](c1ccc(-c2ccc(S(C)(=O)=O)cc2)cc1)C(F)(F)F)C(=O)NC1(C#N)CC1 [ODN, (S)—N-(1-cyanocyclopropyl)-4-fluoro-4-methyl-2-(((S)-2,2,2-trifluoro-1-(4′-(methylsulfonyl)-[1,1′-biphenyl]-4-yl)ethyl)amino)pentanamide, reference compound] | – | 0.00056 ± 2e-06 µM | 5.35 ± 0.596 µM | 0.0243 ± 0.000569 µM | 0.605 ± 0.0401 µM | 0.0626 ± 0.0025 µM | (fast) reversible inhibitor | covalent complex formed | 24244

From patent publication US12371400B2, “Cathepsin inhibitors” (ACADEMISCH ZIEKENHUIS LEIDEN (H.O.D.N. LUMC), priority 2017, dated 2025)
